Results on 1 compound are retold here after publication PMC12131194, “Rational design, synthesis, and evaluation of novel polypharmacological compounds targeting NaV1.5, KV1.5, and K2P channels for atrial fibrillation” (The Journal of Biological Chemistry, 2025).

This test addresses T1, human Kv1.5 (Homo sapiens, UniProt P22460).
T1 construct: KV1.5 (NM_002234), and TASK-1 (NM_002246); expressed in transfected cells; host or cells: HEK-293 (transient transfection)
In words: Whole-cell patch-clamp in transfected HEK-293 cells, KV1.5. It counts as cell-based. The conditions noted are these: 10 μM and 100 μM, +40 mV. The procedure: The human embryonic kidney 293 (HEK-293) cell line was obtained from the American Type Culture Collection. HEK-293 cells were cultured in Dulbecco’s modified Eagle’s medium (DMEM-F12, Invitrogen Life Technologies) supplemented with 5% (v/v) fetal bovine serum (FBS) (Thermo Fisher Scientific) and 1% antibiotics (penicillin 100 U/ml y streptomycin 100 μg/ml) (Gibco, Thermo Fisher). The cells were maintained at 37 °C and 5% CO2 atmosphere.
For the electrophysiological experiments, HEK-293 cells were transiently transfected with cDNA encoding human NaV1.5 (plasmid 145,374, Addgene), KV1.5 (NM_002234), and TASK-1 (NM_002246). […] The cells were incubated for 4 h in transfection medium OptiMEM (Invitrogen). […]
For Nav1.5, the effect of 6f at both concentrations was tested using a repetitive single test voltage pulse at −10 mV (during 20 ms) from a holding potential of −80 mV, with intervals of 5s between pulses. For Kv1.5 and TASK-1, ramp voltage protocols were applied with pulse intervals of 20 s, and the currents were analyzed at +40 mV. […]
After recording currents with stable amplitudes, the cells were treated with 6f and applied from the bath solution. Currents were continuously recorded during repetitive pulses until a stable effect was achieved. […] The inhibition percentage was calculated as follows: Inℎibition (%) = 100 ∗ (Icontrol − Idrug)/Icontrol.
For orientation: Patch clamp records ionic current or voltage across a cell membrane.

Molecules are shown by their SMILES.

T1 sequence (P22460 whole entry): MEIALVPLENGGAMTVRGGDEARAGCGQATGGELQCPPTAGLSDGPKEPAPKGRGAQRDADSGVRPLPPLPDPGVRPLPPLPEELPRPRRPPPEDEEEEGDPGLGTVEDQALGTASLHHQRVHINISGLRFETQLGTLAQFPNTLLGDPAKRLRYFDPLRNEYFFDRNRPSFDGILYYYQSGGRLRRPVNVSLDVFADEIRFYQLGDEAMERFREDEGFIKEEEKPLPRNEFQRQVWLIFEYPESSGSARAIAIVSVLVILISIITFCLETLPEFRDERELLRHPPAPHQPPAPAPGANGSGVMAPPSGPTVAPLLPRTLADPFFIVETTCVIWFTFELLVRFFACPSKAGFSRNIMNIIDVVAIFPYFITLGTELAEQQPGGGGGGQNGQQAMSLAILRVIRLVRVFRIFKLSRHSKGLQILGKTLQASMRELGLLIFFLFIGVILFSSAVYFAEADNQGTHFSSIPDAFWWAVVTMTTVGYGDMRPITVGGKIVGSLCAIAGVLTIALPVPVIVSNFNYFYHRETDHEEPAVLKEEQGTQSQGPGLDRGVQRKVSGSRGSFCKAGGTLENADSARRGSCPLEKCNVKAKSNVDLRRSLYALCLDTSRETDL

As to `CCCCN(CCCC)CC(=O)Nc1ccc(OC)cc1OC` [Compound 6f, 2-(dibutylamine)-N-(2,4-dimethoxiphenyl)acetamide], the “Blockade of KV1.5 in HEK cells” value is “significant blockade by 6f only at 100 μM”.
